Measurements taken from the NIST ThermoML archive (doi:10.1016/j.jct.2019.01.024).

Assay: mn = molality of the nth substance listed, in mol/kg
Details: 101 kPa, Liquid; for viscosity: Falling or rolling sphere viscometry; for speed of sound: Frequency=3 MHz, Single path-length method; for mass density: Vibrating tube method

NNC(=O)c1ccncc1 [isonicotinic acid hydrazide] + O
Details | mass density [kg/m3] | speed of sound [m/s] | viscosity [mPa·s]
293.15 K, m1 = 0.0255 | 999.11 | 1485.3 | 1.006
293.15 K, m1 = 0.0494 | 999.92 | 1486.9 | 1.012
293.15 K, m1 = 0.0754 | 1000.8 | 1488.6 | 1.018
293.15 K, m1 = 0.1 | 1001.64 | – | 1.024
293.15 K, m1 = 0.1253 | 1002.5 | 1491.8 | 1.03
293.15 K, m1 = 0.15 | 1003.35 | 1493.4 | 1.037
293.15 K, m1 = 0.2002 | 1005.07 | 1496.5 | 1.049
293.15 K, m1 = 0.2492 | 1006.75 | 1499.4 | 1.062
293.15 K, m1 = 0.3001 | 1008.5 | 1502.4 | 1.075
293.15 K, m1 = 0.3489 | 1010.18 | 1505.1 | 1.088
293.15 K, m1 = 0.4003 | 1011.96 | 1507.9 | 1.102
298.15 K, m1 = 0.0255 | 997.93 | 1498.6 | 0.8937
298.15 K, m1 = 0.0494 | 998.74 | 1500.2 | 0.8984
298.15 K, m1 = 0.0754 | 999.61 | 1501.9 | 0.9036
298.15 K, m1 = 0.1 | 1000.45 | – | 0.9086
298.15 K, m1 = 0.1253 | 1001.3 | 1505.1 | 0.9138
298.15 K, m1 = 0.15 | 1002.14 | 1506.6 | 0.9191
298.15 K, m1 = 0.2002 | 1003.84 | 1509.7 | 0.9298
298.15 K, m1 = 0.2492 | 1005.51 | 1512.6 | 0.9401
298.15 K, m1 = 0.3001 | 1007.25 | 1515.6 | 0.951
298.15 K, m1 = 0.3489 | 1008.91 | 1518.4 | 0.9616
298.15 K, m1 = 0.4003 | 1010.67 | 1521.3 | 0.9729
303.15 K, m1 = 0.0255 | 996.53 | 1510.1 | 0.8001
303.15 K, m1 = 0.0494 | 997.34 | 1511.6 | 0.804
303.15 K, m1 = 0.0754 | 998.21 | 1513.3 | 0.8084
303.15 K, m1 = 0.1 | 999.03 | – | 0.8125
303.15 K, m1 = 0.1253 | 999.88 | 1516.4 | 0.8169
303.15 K, m1 = 0.15 | 1000.71 | 1517.9 | 0.8213
303.15 K, m1 = 0.2002 | 1002.4 | 1521 | 0.8301
303.15 K, m1 = 0.2492 | 1004.05 | 1523.9 | 0.8389
303.15 K, m1 = 0.3001 | 1005.77 | 1526.9 | 0.8482
303.15 K, m1 = 0.3489 | 1007.42 | 1529.7 | 0.8571
303.15 K, m1 = 0.4003 | 1009.16 | 1532.6 | 0.8661
308.15 K, m1 = 0.0255 | 994.92 | 1521.4 | 0.7213
308.15 K, m1 = 0.0494 | 995.72 | 1522.9 | 0.7246
308.15 K, m1 = 0.0754 | 996.58 | 1524.5 | 0.7282
308.15 K, m1 = 0.1 | 997.4 | – | 0.7317
308.15 K, m1 = 0.1253 | 998.25 | 1527.6 | 0.7353
308.15 K, m1 = 0.15 | 999.08 | 1529.1 | 0.7389
308.15 K, m1 = 0.2002 | 1000.75 | 1532.2 | 0.7463
308.15 K, m1 = 0.2492 | 1002.39 | 1535.1 | 0.7537
308.15 K, m1 = 0.3001 | 1004.1 | 1538.1 | 0.7612
308.15 K, m1 = 0.3489 | 1005.74 | 1540.9 | 0.7687
308.15 K, m1 = 0.4003 | 1007.46 | 1543.8 | 0.7765
313.15 K, m1 = 0.0255 | 993.1 | 1528.4 | 0.6545
313.15 K, m1 = 0.0494 | 993.89 | 1529.8 | 0.6572
313.15 K, m1 = 0.0754 | 994.75 | 1531.4 | 0.6602
313.15 K, m1 = 0.1 | 995.57 | – | 0.6632
313.15 K, m1 = 0.1253 | 996.41 | 1534.4 | 0.6663
313.15 K, m1 = 0.15 | 997.23 | 1535.8 | 0.6693
313.15 K, m1 = 0.2002 | 998.9 | 1538.8 | 0.6756
313.15 K, m1 = 0.2492 | 1000.53 | 1541.7 | 0.6818
313.15 K, m1 = 0.3001 | 1002.22 | 1544.6 | 0.6882
313.15 K, m1 = 0.3489 | 1003.84 | 1547.3 | 0.6944
313.15 K, m1 = 0.4003 | 1005.55 | 1550.2 | 0.7007
318.15 K, m1 = 0.0255 | 991.08 | 1534.5 | 0.5987
318.15 K, m1 = 0.0494 | 991.87 | 1535.9 | 0.6009
318.15 K, m1 = 0.0754 | 992.73 | 1537.4 | 0.6034
318.15 K, m1 = 0.1 | 993.54 | – | 0.6058
318.15 K, m1 = 0.1253 | 994.38 | 1540.3 | 0.6084
318.15 K, m1 = 0.15 | 995.19 | 1541.7 | 0.611
318.15 K, m1 = 0.2002 | 996.85 | 1544.5 | 0.6163
318.15 K, m1 = 0.2492 | 998.46 | 1547.3 | 0.6215
318.15 K, m1 = 0.3001 | 1000.14 | 1550.2 | 0.6268
318.15 K, m1 = 0.3489 | 1001.75 | 1552.9 | 0.6321
318.15 K, m1 = 0.4003 | 1003.44 | 1555.7 | 0.6375

O [water] + NNC(=O)c1ccncc1
m2 = 0
Details | mass density [kg/m3] | speed of sound [m/s] | viscosity [mPa·s]
293.15 K | – | 1483.6 | 1.002
298.15 K | – | – | 0.8903
303.15 K | – | 1508.4 | 0.7973
308.15 K | 994.07 | – | 0.719
313.15 K | – | 1526.8 | 0.6526
318.15 K | – | 1533 | 0.5972
